Holding throughout (type): in vivo
The subject of assay [1] is grassy (in particular warm climate grassy) monocotyledonous weeds. In words: Post-emergence herbicidal activity, summary statements on Biological Examples 1 to 3. To be noted: applied at about 250 g/ha post-emergence; Biological Examples 1 and 2. The method, then:
(§1) Seeds of a variety of test plant species were sown in standard soil ** in pots. After cultivation for one day (pre-emergence) or after 8 days cultivation (post-emergence) under controlled conditions in a glasshouse (at 24/16° C., day/night; 14 hours light; 65% humidity), the plants were sprayed with an aqueous spray solution derived from the formulation of the technical active ingredient (the test herbicide) in acetone/water (50:50) solution containing 0.5% Tween 20 (polyoxyethylene sorbitan monolaurate, CAS Reg. No. 9005-64-5). The test plants were then grown on under controlled conditions in a glasshouse (at 24/16° C., day/night; 14 hours light; 65% humidity) and watered twice daily. 13 Days after application of the test herbicide, for pre- and post-emergence, the test was evaluated visually for percentage phytotoxicity to each plant (where 100%=total damage to plant; 0%=no damage to plant). Generally, each test herbicide is only tested on 1 plant per plant species for each application rate tested and for each application timing. ** The “standard soil” in Biological Example 1 is usually a “sand” or “sandy loam” type of soil.
Seeds of a variety of monocotyledonous and dicotyledonous test plants are sown in standard soil in pots. The plants are cultivated for one day (for pre-emergence) or for about 12 days (range=10-13 days) (for post-emergence) under controlled conditions in a glasshouse (warm climate species at 24/18° C., cool climate species at 20/16° C., both at day/night; 16 hours light; 65% humidity). An “instant formulation”, known as the “IF50”, containing 50 g/litre (i.e. 5% w/v) of the “technical” (i.e. unformulated) active ingredient is prepared by dissolving the active ingredient in a mixture of organic solvents and emulsifier, details of which are provided in the Table below. […]
The test plants are then grown on, in a glasshouse (greenhouse) under controlled conditions (at either 24/18° C. or 20/16° C. (day/night) as mentioned above; 16 hours light; 65% humidity) and are watered twice daily. Either 14 or 15 days after application of the herbicide (14 or 15 DAA) (for post-emergence), or 20 days after application of the herbicide (20 DAA) (for pre-emergence), the test plants are evaluated visually, and an assessed percentage phytotoxicity score is given for each herbicidal application on each plant species (where 100%=total damage to plant; 0%=no damage to plant). […]

The test system of assay [2] is Setaria faberi (SETFA). Nature of the assay: Biological Example 1A glasshouse assay, post-emergence application. The following applies: Setaria faberi, 312 h, post-emergence, 13 days after application, read-out: Percentage phytotoxicity SETFA. The method, then: as §1
(§2) Dicotyledonous weeds: ABUTH=Abutilon theophrasti; AMARE=Amaranthus retroflexus. Grassy monocotyledonous weeds: SETFA=Setaria faberi; ALOMY=Alopecurus myosuroides; ECHCG=Echinochloa crus-galli; ZEAMX=Zea mays (corn, maize, e.g. volunteer corn). For Compound A16, the grassy monocotyledonous weed LOLPE (Lolium perenne) was used in the test insterad of ALOMY.

Assay [3] relates to Amaranthus retroflexus (AMARE). The assay is described as above. The following applies: 312 h, 13 days after application, read-out: Percentage phytotoxicity AMARE. The method, then:
as §1, §2

Assay [4] relates to Echinochloa crus-galli (ECHCG). The description is as above. The following applies: 312 h, 13 days after application, read-out: Percentage phytotoxicity ECHCG. The procedure: as §1, §2
The test system of assay [5] is Abutilon theophrasti (ABUTH). The assay is described as above. To be noted: 312 h, 13 days after application, read-out: Percentage phytotoxicity ABUTH. The method, then: as §1, §2
Assay [6] deals with Lolium perenne (LOLPE). The description is as above. To be noted: 13 days after application. The procedure: as §1, §2
Assay [7] concerns Zea mays (ZEAMX, corn, maize, e.g. volunteer corn). Described as above. The following applies: Zea mays, 312 h, post-emergence, 13 days after application, read-out: Percentage phytotoxicity ZEAMX. The method, then: as §1, §2
For assay [8], the system named is Setaria faberi (SETFA). In words: Biological Example 1B glasshouse assay, pre-emergence application. To be noted: 250 g/ha, 13 days after application. The method, then:
as §1, §2

In assay [9] the test system is Amaranthus retroflexus (AMARE). The description is as above. The following applies: 250 g/ha, 13 days after application. The method, then: as §1, §2
In assay [10] the test system is Echinochloa crus-galli (ECHCG). The description is as above. To be noted: 250 g/ha, 13 days after application. The procedure:
as §1, §2

Assay [11] has as its system Abutilon theophrasti (ABUTH). The description is as above. To be noted: 250 g/ha, 13 days after application. The procedure: as §1, §2
Assay [12] concerns Lolium perenne (LOLPE). The description is as above. The following applies: 250 g/ha, 13 days after application. The method, then: as §1, §2
The subject of assay [13] is Zea mays (ZEAMX, corn, maize, e.g. volunteer corn). The assay is described as above. To be noted: 250 g/ha, 13 days after application. The procedure: as §1, §2

As for `CC#Cc1cc(F)c(C2C(=O)C3C(C2=O)[C@H]2CC[C@@H]3O2)c(OC)c1` (stereo partly shown) [Compound A16], in assay [1], the “post-emergent herbicidal potency against grassy monocotyledonous weeds (in words)” value is on record as “potent post-emergent herbicides”. Besides, the pest or weed control at 30 g/ha in the assay with Setaria faberi (SETFA) [2] (30 g/ha) worked out at 70%; in assay [3] (30 g/ha), 0%; in [4] (30 g/ha) it was 90%; in assay [5] (30 g/ha), 0%; in assay [7] (30 g/ha), 90%. The pest or weed control at 250 g/ha came out at 90% in the assay with Setaria faberi (SETFA) [2] (250 g/ha); 10% in assay [3] (250 g/ha); 100% in [4] (250 g/ha); 70% in [5] (250 g/ha); 100% in assay [7] (250 g/ha). The “Percentage phytotoxicity LOLPE” value turned out to be 70% in the assay on Lolium perenne (LOLPE) [6] (30 g/ha), 90% in the assay on Lolium perenne (LOLPE) [6] (250 g/ha) and 90% with Lolium perenne (LOLPE) [12]. Besides, in the assay on Setaria faberi (SETFA) [8], the “Percentage phytotoxicity SETFA” value is on record as 70%. Further, the “Percentage phytotoxicity AMARE” value in assay [9] worked out at 30%. In addition, the “Percentage phytotoxicity ECHCG” value in assay [10] is listed as 90%. The “Percentage phytotoxicity ABUTH” value in assay [11] amounted to 0%. Also, the “Percentage phytotoxicity ZEAMX” value in assay [13] was determined as 90%.

For the origin of these results see patent publication US10696686B2, “Herbicidally active (alkynyl-phenyl)-substituted cyclic dione compounds and derivatives thereof” (Syngenta Limited, priority 2013, dated 2020).
